The text below walks through data of paper PMC10436262, “Structure-Based Design of Inhibitors of the m^6A-RNA Writer Enzyme METTL3” (ACS Bio & Med Chem Au, 2023).

One assay concerns the target T1, METTL16 (Homo sapiens, UniProt Q86W50).
T1 sequence (Q86W50 1-562): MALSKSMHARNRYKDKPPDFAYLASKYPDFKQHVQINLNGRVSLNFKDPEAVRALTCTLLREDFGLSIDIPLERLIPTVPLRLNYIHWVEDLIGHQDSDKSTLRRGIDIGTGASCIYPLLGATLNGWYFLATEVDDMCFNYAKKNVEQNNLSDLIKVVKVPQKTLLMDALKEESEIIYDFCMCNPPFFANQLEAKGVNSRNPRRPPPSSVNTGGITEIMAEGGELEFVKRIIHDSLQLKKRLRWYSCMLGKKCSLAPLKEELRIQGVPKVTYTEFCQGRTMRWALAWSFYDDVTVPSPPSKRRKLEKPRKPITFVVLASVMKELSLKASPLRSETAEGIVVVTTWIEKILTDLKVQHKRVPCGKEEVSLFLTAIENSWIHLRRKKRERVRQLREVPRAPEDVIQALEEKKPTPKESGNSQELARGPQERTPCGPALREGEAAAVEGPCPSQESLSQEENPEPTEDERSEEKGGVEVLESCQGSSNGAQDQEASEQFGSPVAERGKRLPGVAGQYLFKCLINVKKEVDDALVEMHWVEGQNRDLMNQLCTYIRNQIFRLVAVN
The assay is described as follows: Thermal shift assay. The format is binding. How it is done: (§1) METTL1 mediates the formation of N7-methylguanine in a subset of RNA species, such as tRNAs, mRNAs, and microRNAs, whereas METTL16 is able to N6-methylate a subset of mRNAs and U6 small nuclear RNAs.[23],[24] The co-product of methyl transfer catalysis, S-adenosyl-L-homocysteine (SAH), was used as a positive control in the thermal shift assay. […] Compound 54 at 200 μM was able to shift the melting curve of METTL3/METTL14 by 1.8 °C compared to the DMSO control (Figure S4).
(§2) The protein sample was buffered in 25 mM HEPES (pH 7.4) and 150 mM NaCl and assayed in a 96-well plate at a final concentration of 2 μM in 20 μL volume. The SYPRO Orange dye was added as a fluorescence probe at a dilution of 1:1000. The compound 54 concentrations tested were 10, 50, 100, and 200 μM, while the SAH concentrations tested were 100, 500, 1000, and 2000 μM. The temperature was raised with a step of 0.5 °C starting from 20 to 80 °C, and fluorescence readings were taken at each interval. The reported values (ΔTm) are calculated as the difference between the transition midpoints of an individual sample and the average of the reference wells (containing the protein and the DMSO only) in the same plate. The DMSO concentration was kept at 1% (v/v).

Assay [1] concerns the target T2, METTL3/METTL14 (Homo sapiens, UniProt Q86U44).
T2 construct: made in house; host or cells: Sf9 insect cells (baculovirus)
Nature of the assay: Thermal shift assay. The format is binding. To be noted: vs DMSO control. How it is done:
as §1, §2

Another assay concerns the target METTL1 (Homo sapiens, UniProt Q9UBP6). The assay is described as follows: Thermal shift assay. The assay is classed as binding. How it is done: as §1, §2
The test system of assay [2] is m^6A/A level in MOLM-13 cells. Details: method as in PMID 34237194. The conditions noted are these: read-out: IC50 for m^6A/A reduction; cited from earlier work.
Assay [3] has as its target T2, METTL3/METTL14. The assay is described as follows: METTL3 enzymatic inhibition assay by homogeneous time-resolved fluorescence (HTRF). The assay is classed as biochemical. How it is done:
Compound potencies were evaluated by using a previously reported METTL3 inhibition assay. […] Tested compounds that inhibit METTL3 decrease the m^6A level and thus reduce the HTRF signal. The biochemical assay was performed, as described previously.[19] The IC50 values derived from fitting a dose–response curve to the data using nonlinear regression. The IC50 values are given as an average of at least two independent measurements for each compound in the text.
(Time-resolved FRET reads energy transfer from a long-lived donor to a nearby acceptor.)

The subject of the next assay is MOLM-13 cells. The assay is described as follows: Antiproliferative activity / cytotoxicity (GI50), CellTiter-Glo. The format is cell-based. How it is done:
We then decided to evaluate the cellular potency of inhibitor 54. The antiproliferative activity on MOLM-13, which is an acute myeloid leukemia cell line, was measured using a previously published protocol with a 3-day incubation time.[10]
MOLM-13 cells were cultured in RPMI 1640 medium containing 10% Gibco FBS and 1% penicillin/streptomycin (complete medium) in 5% CO2 at 37 °C in a humidified incubator, with maintained cell densities at 0.6–2 × 10^6 cells/mL.
Cells were seeded in white clear-bottom 96-well plates at a density of 2 × 10^4 cells/well in 50 μL of the complete RPMI medium and treated with 50 μL increasing concentrations of compound 54 dissolved in DMSO (final concentration of compounds 1.25–160 μM) or DMSO only (0.5% (v/v)) as a negative control and incubated for 72 h at 37 °C with 5% CO2. Cell viability was determined using a CellTiter-Glo luminescent cell viability assay (Promega G7570) based on the detection of ATP according to the manufacturer’s instructions. […] The luminescence was recorded using a Tecan Infinite […] M1000 microplate reader from the top. The background luminescence value was obtained from wells containing the CellTiter-Glo reagent and medium without cells. Cell viability curves were plotted in GraphPad Prism 9 and fitted with nonlinear regression, from which GI50 values were determined.
A general note: Cellular ATP, detected with luciferase, serves as a proxy for viable cell number.

Setting [4] is: SAH at 2000 μM, vs DMSO control.

pIC50: −log10 of the molar value.

T2 sequence (Q86U44 whole entry): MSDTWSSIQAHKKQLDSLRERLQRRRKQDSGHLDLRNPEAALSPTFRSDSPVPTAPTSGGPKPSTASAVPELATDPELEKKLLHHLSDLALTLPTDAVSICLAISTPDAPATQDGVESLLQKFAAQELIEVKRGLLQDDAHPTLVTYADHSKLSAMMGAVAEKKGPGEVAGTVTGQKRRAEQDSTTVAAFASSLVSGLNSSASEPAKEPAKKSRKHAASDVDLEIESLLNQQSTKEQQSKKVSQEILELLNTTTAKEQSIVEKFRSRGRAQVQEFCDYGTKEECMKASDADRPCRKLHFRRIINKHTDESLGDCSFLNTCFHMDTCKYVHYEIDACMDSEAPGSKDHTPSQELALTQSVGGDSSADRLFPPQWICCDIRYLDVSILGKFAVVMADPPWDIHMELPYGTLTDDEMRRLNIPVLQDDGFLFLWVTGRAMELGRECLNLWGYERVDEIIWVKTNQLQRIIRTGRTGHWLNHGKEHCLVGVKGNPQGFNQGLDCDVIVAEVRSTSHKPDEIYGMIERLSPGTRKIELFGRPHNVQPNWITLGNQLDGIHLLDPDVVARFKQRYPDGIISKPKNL
T2 sequence (Q9HCE5 whole entry partner): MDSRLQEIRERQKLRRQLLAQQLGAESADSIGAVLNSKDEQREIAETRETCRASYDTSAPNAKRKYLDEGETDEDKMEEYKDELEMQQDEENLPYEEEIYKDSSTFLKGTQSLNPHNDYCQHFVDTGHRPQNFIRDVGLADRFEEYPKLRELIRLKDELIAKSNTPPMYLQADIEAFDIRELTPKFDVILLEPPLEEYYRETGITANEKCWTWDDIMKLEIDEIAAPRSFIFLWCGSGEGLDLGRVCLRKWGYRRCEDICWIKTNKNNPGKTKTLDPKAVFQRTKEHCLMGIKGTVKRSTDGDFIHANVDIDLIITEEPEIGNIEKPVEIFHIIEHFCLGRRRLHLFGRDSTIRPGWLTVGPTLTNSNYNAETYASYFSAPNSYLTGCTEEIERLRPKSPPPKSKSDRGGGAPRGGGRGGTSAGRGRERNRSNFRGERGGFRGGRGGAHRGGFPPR
METTL1, sequence (Q9UBP6 whole entry, species assumed): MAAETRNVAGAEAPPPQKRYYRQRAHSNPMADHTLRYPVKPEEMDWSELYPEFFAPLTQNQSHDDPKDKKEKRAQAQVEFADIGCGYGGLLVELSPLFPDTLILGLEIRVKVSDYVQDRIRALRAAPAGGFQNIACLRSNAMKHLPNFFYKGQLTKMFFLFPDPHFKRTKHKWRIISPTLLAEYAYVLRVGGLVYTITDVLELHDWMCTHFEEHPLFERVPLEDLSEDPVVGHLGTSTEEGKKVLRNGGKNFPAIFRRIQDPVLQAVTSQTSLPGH

Consider `Nc1ncnc2c1ncn2[C@@H]1O[C@H](CSCC[C@H](N)C(=O)O)[C@@H](O)[C@H]1O` [SAH, S-adenosyl-L-homocysteine, reference compound], for which the ΔTm on METTL16 (setting [4]) is 2.5 °C; on METTL3/METTL14 [1] (SAH at 2000 μM) it was 4.05 °C; on METTL1 (setting [4]) it was 8.75 °C.

As for `CC1(C)CCN(Cc2ccc(C(=O)NC[C@]3(O)CCCN(c4cc(NCc5ccccc5)ncn4)C3)c(O)c2)CC1` [UZH1a], the pIC50 in assay [2] was 5.34.

As a reminder, the GI50 is the concentration that inhibits growth by half. For `CC(C)C1N(Cc2ccc3c(NCC4(O)CCCN(c5cc(NCc6ccccc6)ncn5)C4)cccc3c2)CC12CCC2` (centres unmarked) [compound 54, 1-(6-(benzylamino)pyrimidin-4-yl)-3-(((6-((1-isopropyl-2-azaspiro[3.3]heptan-2-yl)methyl)naphthalen-1-yl)amino)methyl)piperidin-3-ol], the pIC50 on METTL3/METTL14 [3] (HTRF assay, racemic mixture, read-out: IC50) was 7.27. The “fold improvement in affinity (IC50) vs compound 46” value on METTL3/METTL14 [3] (matched pair 46:54) was found to be 6.7 fold. Also, the “ΔTm (shift of melting curve)” value at METTL16 (compound up to 200 μM) and at METTL1 (compound up to 200 μM) was “No shift” throughout. Also, the ΔTm at 200 µM on METTL3/METTL14 [1] (compound at 200 μM, read-out: ΔTm (shift of melting curve)) worked out at 1.8 °C. For the same molecule, it took 6 µM to inhibit growth in the assay with MOLM-13 cells (Homo sapiens, MOLM-13, 3-day (72 h) incubation, average of two biological replicates) by half (GI50). In addition, the “factor by which cellular GI50 is higher than biochemical IC50” value with MOLM-13 cells (MOLM-13 GI50 vs HTRF IC50) was “about 100”.
